Assay results reported in PubChem BioAssay AID256 (DTP/NCI, 2004).
“And” between values parts separate entries of the source, which are not always exact repeats. Equal entries are not always repeated. Inconclusive results and toxic doses are left out. How the source made its calls: active means survival T/C of 150% or more; inactive means T/C below 125% in these data.

Tested on: CD2F1 mice, L1210 leukemia ip, survival T/C
Assay: NCI In Vivo Anticancer Drug Screen. Data for tumor model L1210 Leukemia (intraperitoneal) in CD2F1 (CDF1) mice
Settings: endpoint: mean survival time, higher = longer survival
Method in brief: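 In this screen, transplantable tumors were grown in mice given either the compound or its vehicle. Results were expressed as the treated measurement relative to the control measurement.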

[1] = dose: 100.0 mg/kg/injection, schedule: Q01DX009 (ip), vehicle: saline with Tween-80
[2] = dose: 100.0 mg/kg/injection, schedule: Q04DX003 (ip), vehicle: saline with Tween-80
[3] = dose: 200.0 mg/kg/injection, schedule: Q01DX009 (ip), vehicle: saline with Tween-80
[4] = dose: 200.0 mg/kg/injection, schedule: Q04DX003 (ip), vehicle: saline with Tween-80
[5] = dose: 400.0 mg/kg/injection, schedule: Q01DX009 (ip), vehicle: saline with Tween-80
[6] = dose: 400.0 mg/kg/injection, schedule: Q04DX003 (ip), vehicle: saline with Tween-80
[7] = dose: 100.0 mg/kg/injection, schedule: Q04DX002 (ip), vehicle: saline with Tween-80
[8] = dose: 200.0 mg/kg/injection, schedule: Q04DX002 (ip), vehicle: saline with Tween-80
[9] = dose: 400.0 mg/kg/injection, schedule: Q04DX002 (ip), vehicle: saline with Tween-80
[10] = dose: 12.5 mg/kg/injection, schedule: Q01DX009 (ip), vehicle: saline with Tween-80
[11] = dose: 25.0 mg/kg/injection, schedule: Q01DX009 (ip), vehicle: saline with Tween-80
[12] = dose: 50.0 mg/kg/injection, schedule: Q01DX009 (ip), vehicle: saline with Tween-80
[13] = dose: 25.0 mg/kg/injection, schedule: Q01DX005 (ip), vehicle: water
[14] = dose: 50.0 mg/kg/injection, schedule: Q01DX005 (ip), vehicle: water
[15] = dose: 100.0 mg/kg/injection, schedule: Q01DX005 (ip), vehicle: water
[16] = dose: 200.0 mg/kg/injection, schedule: Q01DX005 (ip), vehicle: water
[17] = dose: 100.0 mg/kg/injection, schedule: Q01DX001 (ip), vehicle: saline with Tween-80
[18] = dose: 200.0 mg/kg/injection, schedule: Q01DX001 (ip), vehicle: saline with Tween-80
[19] = dose: 400.0 mg/kg/injection, schedule: Q01DX001 (ip), vehicle: saline with Tween-80
[20] = dose: 50.0 mg/kg/injection, schedule: Q04DX002 (ip), vehicle: saline with Tween-80
[21] = dose: 75.0 mg/kg/injection, schedule: Q01DX001 (ip), vehicle: saline
[22] = dose: 150.0 mg/kg/injection, schedule: Q01DX001 (ip), vehicle: saline

Measured: T/C

COC(=O)C(Br)C(Br)c1ccccc1 (stereo not drawn)
inactive: [1] 101 % of control | [2] 103 % of control | [3] 101 % of control | [4] 106 % of control | [5] 95 % of control | [6] 106 % of control

O=C1OCc2ccccc21
inactive: [7] 96 % of control | [8] 100 % of control | [9] 100 % of control

O=C1C(=O)c2ccccc2C(O)=C1CC1=C(O)c2ccccc2C(=O)C1=O
inactive: [2] 103 % of control | [4] 101 % of control | [6] 106 % of control

Nc1c(C(=O)O)cnn1CCO
inactive: dose: 50.0 mg/kg/injection, schedule: Q04DX003 (ip), vehicle: water 94 % of control | dose: 100.0 mg/kg/injection, schedule: Q04DX003 (ip), vehicle: water 100 % of control | dose: 200.0 mg/kg/injection, schedule: Q04DX003 (ip), vehicle: water 100 % of control | dose: 400.0 mg/kg/injection, schedule: Q04DX003 (ip), vehicle: water 97 % of control and 100 % of control | dose: 700.0 mg/kg/injection, schedule: Q04DX003 (ip), vehicle: water 89 % of control

c1ccc2[nH]c(CN3CCCCC3)cc2c1
inactive: [10] 106 % of control | [11] 100 % of control | [12] 90 % of control

CCOC(=O)C(C(=O)c1ccccc1)c1cc(NS(=O)(=O)c2ccccc2)ccc1O (stereo not drawn)
inactive: dose: 132.0 mg/kg/injection, schedule: Q04DX003 (ip), vehicle: saline with Tween-80 115 % of control | [4] 106 % of control | dose: 300.0 mg/kg/injection, schedule: Q04DX003 (ip), vehicle: saline with Tween-80 103 % of control

CCCCNC(=S)S
inactive: [1] 100 % of control | [2] 100 % of control | [3] 102 % of control | [4] 92 % of control | [5] 100 % of control | [6] 94 % of control

C/C(=C\Cl)CN(C)C
inactive: dose: 50.0 mg/kg/injection, schedule: Q01DX009 (ip), vehicle: acetone 97 % of control | dose: 100.0 mg/kg/injection, schedule: Q01DX009 (ip), vehicle: acetone 103 % of control

CCOC(=O)C[Si](C)(C)C
inactive: [13] 101 % of control | [14] 104 % of control | [15] 101 % of control | [16] 104 % of control | dose: 400.0 mg/kg/injection, schedule: Q01DX005 (ip), vehicle: water 101 % of control

Cc1ccc(N=C=C(c2ccccc2)c2ccccc2)cc1
inactive: [2] 94 % of control | [4] 97 % of control | [6] 94 % of control

C1CO[P+]2(O1)OCCO2
inactive: dose: 100.0 mg/kg/injection, schedule: Q04DX002 (ip), vehicle: saline 95 % of control | dose: 200.0 mg/kg/injection, schedule: Q04DX002 (ip), vehicle: saline 107 % of control | dose: 400.0 mg/kg/injection, schedule: Q04DX002 (ip), vehicle: saline 95 % of control

CC1(C)SCNC1C(=O)O (stereo not drawn)
inactive: dose: 100.0 mg/kg/injection, schedule: Q01DX001 (ip), vehicle: saline 96 % of control | dose: 200.0 mg/kg/injection, schedule: Q01DX001 (ip), vehicle: saline 100 % of control | dose: 400.0 mg/kg/injection, schedule: Q01DX001 (ip), vehicle: saline 94 % of control

Cc1c2c(c(C)c3c(C)nccc13)Cc1ccccc1-2
inactive: [7] 92 % of control | [8] 92 % of control | [9] 88 % of control

CC(Cc1ccccc1)NC(C#N)c1ccccc1 (stereo not drawn)
inactive: [10] 102 % of control | [11] 98 % of control | [12] 101 % of control

Nc1ccccc1C(=O)C/C=C/c1ccccc1
inactive: [17] 95 % of control | [18] 91 % of control | [19] 87 % of control

COc1cc2c(cc1OC)C13CCN4CC5=CCOC6CC(=O)N2C1C6C5CC43 (stereo not drawn) (tested in a mixture with another compound)
inactive: [17] 110 % of control | dose: 100.0 mg/kg/injection, schedule: Q01DX009 (ip), vehicle: saline 93 % of control

Cc1nc(N)[nH]c(=O)c1CCCN(c1ccccc1)S(=O)(=O)c1ccc(N)cc1
inactive: [17] 101 % of control | [18] 89 % of control | [19] 89 % of control

C[PH+](CC[PH+](c1ccccc1)c1ccccc1)c1ccccc1.[C-]#[O+].[C-]#[O+].[C-]#[O+].[C-]#[O+].[Mo] (stereo not drawn)
inactive: dose: 25.0 mg/kg/injection, schedule: Q04DX002 (ip), vehicle: saline with Tween-80 93 % of control | [20] 89 % of control | [7] 89 % of control

O=S(=O)(Nc1ccccn1)c1ccc(Cl)cc1
inactive: [2] 91 % of control | [4] 95 % of control | [6] 90 % of control

CCC(C)(O)c1cnc(CC(C)C)c(=O)n1O (stereo not drawn)
inactive: [21] 98 % of control | [22] 102 % of control

O=C(O)C(F)(F)C(F)(F)C(F)(F)C(F)=C(F)F
inactive: [21] 103 % of control | [22] 101 % of control

C=C1CCCCCCCCCCC1O (stereo not drawn)
inactive: [2] 91 % of control | [4] 95 % of control | [6] 91 % of control

Cc1csc2nc[nH]c(=O)c12
inactive: [1] 97 % of control | [3] 98 % of control | [5] 105 % of control

C/C=C1/C(=O)Oc2ccccc21
inactive: [12] 101 % of control | [1] 101 % of control | [3] 106 % of control

CCOC1=NN(c2ccccc2)C(=O)C1
inactive: [2] 97 % of control | [4] 100 % of control | [6] 103 % of control

Cc1[nH]nc2c(=O)n(C)cnc12
inactive: dose: 12.5 mg/kg/injection, schedule: Q01DX005 (ip), vehicle: water 103 % of control | [13] 104 % of control | [14] 98 % of control | [15] 92 % of control | [16] 95 % of control

CC(=O)Nc1nc(C)cs1
inactive: [21] 98 % of control | [22] 97 % of control | dose: 300.0 mg/kg/injection, schedule: Q01DX001 (ip), vehicle: saline 98 % of control

CCCCCCCCCC(=O)N1CC[N+](C)(C)CC1
inactive: dose: 5.0 mg/kg/injection, schedule: Q01DX001 (ip), vehicle: saline 102 % of control | dose: 10.0 mg/kg/injection, schedule: Q01DX001 (ip), vehicle: saline 105 % of control | dose: 20.0 mg/kg/injection, schedule: Q01DX001 (ip), vehicle: saline 104 % of control

O=C1c2ccccc2C(c2ccc(Br)cc2)C1Br (stereo not drawn)
inactive: [2] 97 % of control | [4] 90 % of control | [6] 100 % of control

Nc1cc(NCc2ccco2)ncn1
inactive: dose: 37.5 mg/kg/injection, schedule: Q01DX009 (ip), vehicle: Klucel (hydroxypropylcellulose) (HPC) 107 % of control | dose: 75.0 mg/kg/injection, schedule: Q01DX009 (ip), vehicle: Klucel (hydroxypropylcellulose) (HPC) 97 % of control and 104 % of control

COCCNC1=C(C)C(=O)C2=C(C1=O)[C@H](COC(N)=O)[C@]1(OC)[C@@H]3N[C@@H]3CN21
inactive: dose: 3.0 mg/kg/injection, schedule: Q01DX001 (ip), vehicle: distilled water + Tween-80 114 % of control | dose: 24.0 mg/kg/injection, schedule: Q01DX001 (ip), vehicle: distilled water + Tween-80 123 % of control

CC(=O)Nc1cc(N)cc(-c2ccccc2)c1
inactive: [20] 96 % of control and 104 % of control | [2] 94 % of control and 97 % of control | [4] 90 % of control and 94 % of control | [6] 94 % of control and 100 % of control
